Laboratory results from ChEMBL document CHEMBL1201862, “PubChem BioAssay data set” (2004).
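The compound was tested at five concentrations on cells cultured in 96-well plates, with a 48-hour exposure period. GI50 = concentration required for 50% inhibition of growth.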 Calls of active or inactive are those of the source. Rule as the data show it: active = GI50 up to about 1.1 µM and inactive = higher.

Key:
Experiment in all cases: NCI anticancer screen, dose series, 48 h
HOP-92 = test system: HOP-92
M19-MEL = test system: M19-MEL
DU-145 = test system: DU-145
HOP-62 = test system: HOP-62
786-0 = test system: 786-0
OVCAR-4 = test system: OVCAR-4
MDA-MB-231 = test system: MDA-MB-231
HCC 2998 = test system: HCC 2998
K562 = test system: K562
KM12 = test system: KM12
LOX IMVI = test system: LOX IMVI
BT-549 = test system: BT-549
DMS-114 = test system: DMS-114
SF-295 = test system: SF-295
SNB-19 = test system: SNB-19
PC-3 = test system: PC-3
U-251 = test system: U-251
SR = test system: SR
EKVX = test system: EKVX
NCI-H23 = test system: NCI-H23

Measured: GI50

Cc1cc(N(CCC#N)CCC#N)ccc1/C=C(\NC(=O)/C=C/c1ccccc1)C(=O)NN
inactive: HOP-92 20.3 µM | M19-MEL > 100 µM | DU-145 > 100 µM | HOP-62 37.1 µM | 786-0 30.6 µM | OVCAR-4 > 100 µM | MDA-MB-231 32.4 µM | HCC 2998 > 100 µM | K562 > 100 µM | KM12 > 100 µM | LOX IMVI > 100 µM | BT-549 25.6 µM | DMS-114 > 100 µM | SF-295 40 µM | SNB-19 > 40.9 µM | PC-3 > 100 µM | U-251 26 µM | SR > 100 µM | EKVX > 73.3 µM | NCI-H23 > 65.8 µM
